One data set concerns the target T1, muscarinic M2 receptor (Homo sapiens, UniProt P08172).
T1 construct: expressed in transfected cells
T1 sequence (P08172 1-466): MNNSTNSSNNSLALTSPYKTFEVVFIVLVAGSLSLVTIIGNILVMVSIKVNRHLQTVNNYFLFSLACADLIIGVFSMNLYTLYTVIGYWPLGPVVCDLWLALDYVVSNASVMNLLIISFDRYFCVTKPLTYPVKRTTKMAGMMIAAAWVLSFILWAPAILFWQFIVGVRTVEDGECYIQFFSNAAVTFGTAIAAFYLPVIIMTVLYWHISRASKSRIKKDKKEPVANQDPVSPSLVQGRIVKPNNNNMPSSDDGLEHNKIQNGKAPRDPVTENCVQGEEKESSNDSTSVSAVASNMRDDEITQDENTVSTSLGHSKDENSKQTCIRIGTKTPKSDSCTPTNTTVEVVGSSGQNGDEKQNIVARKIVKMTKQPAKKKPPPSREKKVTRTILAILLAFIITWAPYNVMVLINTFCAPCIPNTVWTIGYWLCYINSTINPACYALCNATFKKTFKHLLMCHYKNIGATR
Nature of the data set: R-SAT functional screen, M2. The format is cell-based. Conditions: R-SAT; for Emax: read-out: M2 eff (efficacy); for EC50: read-out: M2 pEC50 (converted). In short, it runs like this: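 Receptor Selection and Amplification Technology (R-SAT) functional cell assay at M1, M2, M3 receptors. Values reported as efficacy (eff) and potency as pEC50.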

A further data set has as its target 5-HT2A receptor (Homo sapiens, UniProt P28223). Nature of the data set: Receptor profile, 5-HT2A inverse agonism. The data set is classed as cell-based. Particulars: negative log of the inhibitory IC50 (inverse agonism); read-out: 5-HT2A pIEC50 (converted).
Data set [1] relates to hyperactivity induced by MK-801. The experiment in a line: MK-801 induced hyperactivity mouse model. The data set is classed as in vivo. Particulars: mice, salts of the compounds. Here is the method: (§1) Five of the compounds listed in Table 2 were tested in an in vivo assay predictive of antipsychotic activity. Salts of these compounds where administered to mice having hyperactivity induced by amphetamine or MK-801 administration. The compounds were administered both subcutaneously (sc) and orally (po).

Data set [2] concerns hyperactivity induced by amphetamine. Nature of the data set: Amphetamine induced hyperactivity mouse model. The format is in vivo. Particulars: mice, salts of the compounds. As to the method:
as §1

For the next data set, the system named is novel object recognition. The experiment in a line: Novel object recognition (NOR) assay. Particulars: mice; for NOR - 60 minutes post training / NOR - 120 minutes post training: dose approx. ID75 in MK-801 hyperactivity assay. The format is in vivo. As to the method: Salts of the compounds were administered to mice at one hour post-training (a time-point at which animals normally behaviorally discriminate between novel and familiar objects) and two hours post-training (a time-point at which these animals normally no longer discriminate between objects). Doses were selected to correspond to the approximate ID75 value in the MK-801 hyperactivity assay.

The nature of the next data set: Ames mutagenesis assay. The data set is classed as cell-based.
Another data set has as its target hERG (Homo sapiens, UniProt Q12809). The experiment in a line: hERG assay.
A further data set addresses CYP 3A4 (Homo sapiens, UniProt P08684). Nature of the data set: biochemical. As to the method: The compounds listed in Table 4 were profiled in a panel of in vitro assays for assessment of cardiovascular (hERG), drug-drug interaction (CYP inhibition), and mutagenic (Ames) liability. Microsomal stability was also determined by measuring both rat and human microsomal clearance.

The target of a further data set is CYP 2C9 (Homo sapiens, UniProt P11712). The experiment in a line: CYP inhibition, 2C9. The format is in vitro ADME.
A further data set has as its target T2, CYP 1A2 (Homo sapiens, UniProt P05177).
T2 sequence (P05177 1-516): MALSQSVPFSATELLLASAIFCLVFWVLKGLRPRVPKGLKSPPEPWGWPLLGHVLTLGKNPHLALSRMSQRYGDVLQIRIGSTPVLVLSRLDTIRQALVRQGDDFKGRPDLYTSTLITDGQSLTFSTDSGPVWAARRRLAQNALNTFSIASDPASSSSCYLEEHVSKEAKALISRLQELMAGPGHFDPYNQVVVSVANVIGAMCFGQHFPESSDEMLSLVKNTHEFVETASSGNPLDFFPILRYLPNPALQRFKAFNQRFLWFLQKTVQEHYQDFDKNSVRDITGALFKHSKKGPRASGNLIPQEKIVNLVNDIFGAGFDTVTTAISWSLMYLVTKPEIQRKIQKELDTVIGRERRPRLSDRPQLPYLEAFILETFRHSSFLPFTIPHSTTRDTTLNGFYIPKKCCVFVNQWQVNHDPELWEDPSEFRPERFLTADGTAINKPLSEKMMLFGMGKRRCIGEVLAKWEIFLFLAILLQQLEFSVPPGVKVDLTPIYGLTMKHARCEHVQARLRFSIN
Nature of the data set: CYP inhibition, 1A2. The data set is classed as in vitro ADME.

For another data set, the target named is CYP 2C19 (Homo sapiens, UniProt P33261). Nature of the data set: CYP inhibition, 2C19. The data set is classed as in vitro ADME.
Another data set concerns the target CYP 2D6 (Homo sapiens, UniProt P10635). Nature of the data set: CYP inhibition, 2D6. The data set is classed as in vitro ADME.
A short description of a further data set: Rat microsomal clearance. The data set is classed as in vitro ADME. Particulars: rat microsomes.
Data set [3] can be described thus: Human microsomal clearance. The data set is classed as in vitro ADME. Particulars: human microsomes.
For the next data set, the target named is T3, M1 receptor (Homo sapiens, UniProt P11229).
T3 sequence (P11229 1-460): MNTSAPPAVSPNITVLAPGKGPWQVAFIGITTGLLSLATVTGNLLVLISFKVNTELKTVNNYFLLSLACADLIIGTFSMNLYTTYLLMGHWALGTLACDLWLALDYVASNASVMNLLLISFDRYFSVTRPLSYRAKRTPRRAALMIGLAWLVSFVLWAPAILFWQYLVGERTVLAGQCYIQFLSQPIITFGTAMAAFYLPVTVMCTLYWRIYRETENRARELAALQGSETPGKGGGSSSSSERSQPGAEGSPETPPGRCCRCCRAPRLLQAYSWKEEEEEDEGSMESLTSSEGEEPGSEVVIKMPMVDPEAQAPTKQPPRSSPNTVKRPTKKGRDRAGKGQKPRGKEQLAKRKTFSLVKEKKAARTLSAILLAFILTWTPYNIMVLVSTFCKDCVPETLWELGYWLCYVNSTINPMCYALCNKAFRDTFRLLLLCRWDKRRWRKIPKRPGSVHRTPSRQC
The experiment in a line: Receptor profile, M1 agonist activity. Particulars: for Emax: read-out: M1 intrinsic activity %.

In a further data set the target is D2 receptor (Homo sapiens, UniProt P14416). Nature of the data set: Receptor profile, D2 agonist activity. Particulars: for D2 intrinsic activity, in words: devoid of agonist activity.
[4] abbreviates: to 10 μM (cytotoxicity precluded evaluation of all concentrations).

Molecules are shown by their SMILES.

Three molecules from patent US20090239840A1, “AMINO SUBSTITUTED DIARYL[a,d]CYCLOHEPTENE ANALOGS AS [sequence] AGONISTS AND METHODS OF TREATMENT OF NEUROPSYCHIATRIC DISORDERS” (ACADIA PHARMACEUTICALS, INC., priority 2003, published 2009) can be followed below.

5-HT2A receptor, sequence (P28223 whole entry): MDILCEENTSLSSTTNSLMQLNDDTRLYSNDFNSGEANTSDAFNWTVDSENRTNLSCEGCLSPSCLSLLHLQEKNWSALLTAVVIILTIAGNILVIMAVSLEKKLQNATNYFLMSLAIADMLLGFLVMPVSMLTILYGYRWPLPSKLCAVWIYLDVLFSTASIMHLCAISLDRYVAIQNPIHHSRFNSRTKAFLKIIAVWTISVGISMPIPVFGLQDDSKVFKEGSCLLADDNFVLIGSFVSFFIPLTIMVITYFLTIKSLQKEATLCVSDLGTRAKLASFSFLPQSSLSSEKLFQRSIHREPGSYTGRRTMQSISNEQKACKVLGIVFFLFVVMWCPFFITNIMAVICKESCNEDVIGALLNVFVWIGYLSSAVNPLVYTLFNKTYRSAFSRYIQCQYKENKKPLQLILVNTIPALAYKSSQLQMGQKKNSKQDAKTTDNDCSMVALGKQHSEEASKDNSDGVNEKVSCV
hERG, sequence (Q12809 whole entry): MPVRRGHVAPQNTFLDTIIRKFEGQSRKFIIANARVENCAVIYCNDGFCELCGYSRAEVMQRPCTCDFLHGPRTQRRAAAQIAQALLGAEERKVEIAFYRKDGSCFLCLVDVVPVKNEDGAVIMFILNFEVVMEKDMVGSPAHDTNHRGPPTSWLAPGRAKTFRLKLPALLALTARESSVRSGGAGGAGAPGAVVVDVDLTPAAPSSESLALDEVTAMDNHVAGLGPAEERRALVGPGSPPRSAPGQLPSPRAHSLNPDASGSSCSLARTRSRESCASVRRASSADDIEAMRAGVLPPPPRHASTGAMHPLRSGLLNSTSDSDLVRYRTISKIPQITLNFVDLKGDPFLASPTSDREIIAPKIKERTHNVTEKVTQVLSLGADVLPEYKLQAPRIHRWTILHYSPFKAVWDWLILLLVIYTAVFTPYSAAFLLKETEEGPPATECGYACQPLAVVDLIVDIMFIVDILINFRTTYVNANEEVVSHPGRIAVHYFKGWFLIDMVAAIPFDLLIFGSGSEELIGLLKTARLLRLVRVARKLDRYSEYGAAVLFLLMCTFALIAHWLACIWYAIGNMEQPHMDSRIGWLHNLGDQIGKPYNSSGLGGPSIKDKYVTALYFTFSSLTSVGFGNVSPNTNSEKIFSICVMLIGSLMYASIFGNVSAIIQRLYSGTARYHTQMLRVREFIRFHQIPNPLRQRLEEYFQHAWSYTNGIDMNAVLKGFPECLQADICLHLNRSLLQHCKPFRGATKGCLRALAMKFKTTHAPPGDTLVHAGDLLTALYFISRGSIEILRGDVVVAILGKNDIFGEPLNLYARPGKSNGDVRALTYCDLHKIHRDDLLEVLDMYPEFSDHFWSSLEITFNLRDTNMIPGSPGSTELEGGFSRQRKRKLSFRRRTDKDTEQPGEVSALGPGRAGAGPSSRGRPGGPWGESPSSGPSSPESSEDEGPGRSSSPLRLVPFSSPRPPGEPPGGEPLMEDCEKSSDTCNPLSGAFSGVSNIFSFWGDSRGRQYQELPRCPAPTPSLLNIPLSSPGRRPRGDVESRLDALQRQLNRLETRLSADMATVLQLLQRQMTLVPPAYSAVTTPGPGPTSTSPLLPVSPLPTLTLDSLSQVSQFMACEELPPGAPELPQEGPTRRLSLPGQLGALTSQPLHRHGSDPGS
CYP 2C9, sequence (P11712 whole entry): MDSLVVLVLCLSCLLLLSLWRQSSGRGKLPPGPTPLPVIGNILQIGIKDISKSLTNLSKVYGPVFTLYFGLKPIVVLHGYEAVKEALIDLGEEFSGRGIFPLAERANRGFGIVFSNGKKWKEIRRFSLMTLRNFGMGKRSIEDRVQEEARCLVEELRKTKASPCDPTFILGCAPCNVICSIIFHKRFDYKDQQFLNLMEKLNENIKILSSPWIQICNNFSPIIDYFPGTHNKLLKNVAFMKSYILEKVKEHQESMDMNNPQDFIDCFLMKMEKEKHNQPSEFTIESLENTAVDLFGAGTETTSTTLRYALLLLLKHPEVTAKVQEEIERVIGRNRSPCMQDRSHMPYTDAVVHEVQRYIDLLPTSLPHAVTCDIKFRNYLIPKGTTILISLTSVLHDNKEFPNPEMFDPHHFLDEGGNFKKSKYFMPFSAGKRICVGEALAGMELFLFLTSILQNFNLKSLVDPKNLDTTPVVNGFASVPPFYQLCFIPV
CYP 2C19, sequence (P33261 whole entry): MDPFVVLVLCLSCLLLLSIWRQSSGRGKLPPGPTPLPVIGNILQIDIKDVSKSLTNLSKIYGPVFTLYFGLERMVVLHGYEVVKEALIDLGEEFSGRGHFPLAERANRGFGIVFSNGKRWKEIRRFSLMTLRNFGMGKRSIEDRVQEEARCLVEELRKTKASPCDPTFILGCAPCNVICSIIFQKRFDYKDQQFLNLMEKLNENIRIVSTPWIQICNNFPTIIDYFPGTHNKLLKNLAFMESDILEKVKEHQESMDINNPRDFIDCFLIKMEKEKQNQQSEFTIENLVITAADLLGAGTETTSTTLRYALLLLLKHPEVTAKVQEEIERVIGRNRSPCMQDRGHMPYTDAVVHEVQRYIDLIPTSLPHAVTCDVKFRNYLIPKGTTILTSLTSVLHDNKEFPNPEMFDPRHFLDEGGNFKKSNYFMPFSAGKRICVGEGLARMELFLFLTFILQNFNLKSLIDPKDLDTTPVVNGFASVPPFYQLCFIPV
D2 receptor, sequence (P14416 whole entry): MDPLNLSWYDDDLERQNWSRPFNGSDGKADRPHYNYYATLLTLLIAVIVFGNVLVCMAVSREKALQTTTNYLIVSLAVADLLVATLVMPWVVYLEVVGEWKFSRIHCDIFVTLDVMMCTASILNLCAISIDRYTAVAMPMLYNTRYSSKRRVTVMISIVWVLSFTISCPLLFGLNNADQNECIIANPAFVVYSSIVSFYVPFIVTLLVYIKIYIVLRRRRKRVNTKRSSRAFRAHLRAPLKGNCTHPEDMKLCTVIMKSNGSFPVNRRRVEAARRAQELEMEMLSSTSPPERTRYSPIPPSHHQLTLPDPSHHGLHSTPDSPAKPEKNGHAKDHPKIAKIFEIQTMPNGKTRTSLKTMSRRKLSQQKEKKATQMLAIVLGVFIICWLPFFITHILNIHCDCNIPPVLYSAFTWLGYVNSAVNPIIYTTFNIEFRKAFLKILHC
CYP 2D6, sequence (P10635 whole entry): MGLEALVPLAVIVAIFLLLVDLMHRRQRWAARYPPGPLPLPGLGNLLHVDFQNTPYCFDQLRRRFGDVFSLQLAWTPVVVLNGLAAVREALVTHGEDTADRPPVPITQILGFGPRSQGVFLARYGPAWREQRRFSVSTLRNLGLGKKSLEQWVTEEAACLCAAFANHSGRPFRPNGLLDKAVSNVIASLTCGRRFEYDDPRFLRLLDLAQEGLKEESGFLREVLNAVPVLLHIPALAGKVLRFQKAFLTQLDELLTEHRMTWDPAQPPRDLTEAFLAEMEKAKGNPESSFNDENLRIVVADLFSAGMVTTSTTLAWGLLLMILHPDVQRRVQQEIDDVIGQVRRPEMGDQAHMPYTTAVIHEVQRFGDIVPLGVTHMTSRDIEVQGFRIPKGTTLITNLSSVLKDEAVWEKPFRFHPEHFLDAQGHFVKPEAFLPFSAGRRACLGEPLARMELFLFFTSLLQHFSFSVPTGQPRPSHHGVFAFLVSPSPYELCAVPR
CYP 3A4, sequence (P08684 whole entry): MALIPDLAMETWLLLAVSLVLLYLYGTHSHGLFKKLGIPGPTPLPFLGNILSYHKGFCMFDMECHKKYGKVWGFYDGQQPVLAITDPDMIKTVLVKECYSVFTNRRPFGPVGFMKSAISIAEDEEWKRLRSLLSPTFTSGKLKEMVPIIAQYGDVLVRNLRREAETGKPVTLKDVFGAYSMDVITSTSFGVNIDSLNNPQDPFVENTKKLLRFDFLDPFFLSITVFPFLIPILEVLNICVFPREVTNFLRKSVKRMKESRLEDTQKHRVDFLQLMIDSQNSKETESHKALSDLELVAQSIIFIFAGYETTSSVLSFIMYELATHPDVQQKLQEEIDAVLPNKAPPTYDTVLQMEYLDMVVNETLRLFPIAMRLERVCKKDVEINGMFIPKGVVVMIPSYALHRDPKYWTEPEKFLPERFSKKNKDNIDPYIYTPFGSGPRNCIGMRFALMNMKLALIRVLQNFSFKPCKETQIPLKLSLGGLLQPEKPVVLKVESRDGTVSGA
Excerpt for D2 receptor: (§2) Intrinsic activity was normalized to carbachol (M1) or pergolide (D2). For those ligands devoid of agonist activity, the values shown are pKi determined using [3H]raclopride.
Excerpt for M1 receptor: as §2

In the case of `Clc1ccc2c(c1)N=C(N1CCNCC1)c1ccccc1C2` [3-Chloro-6-piperazin-1-yl-11H-dibenzo[b,e]azepine], the Emax amounted to 113% on muscarinic M2 receptor, 62% on M1 receptor and 33% on D2 receptor (read-out: D2 intrinsic activity %). Also, the values for the EC50 on muscarinic M2 receptor, at M1 receptor and on D2 receptor were 1260 nM, 100 nM and 12.6 nM, respectively. Moreover, the IC50 was 31.6 nM at 5-HT2A receptor; 1200 nM against hERG; approximately 4000 nM at CYP 3A4; more than 10000 nM against CYP 2C9; more than 10000 nM against CYP 1A2; more than 10000 nM against CYP 2C19. The molecule also gave an IC50 against CYP 2D6 of more than 10000 nM. For the same molecule, the “MK-801 model (ID50 mg/kg po)” value in data set [1] is 1.6 mg/kg. Besides, the “MK-801 model (ID50 mg/kg sc)” value in [1] came to 0.7 mg/kg. Further, the “Amphetamine model (ID50 mg/kg po)” value in [2] stood at 2.8 mg/kg. Besides, the “Amphetamine model (ID50 mg/kg sc)” value in [2] was 3.6 mg/kg. In the data set on novel object recognition, the “NOR Interpretation” value was “no effect”. For the same molecule, in the data set with novel object recognition, the “NOR - 60 minutes post training” value is given as “retained”. Moreover, the “NOR - 120 minutes post training” value in the data set on novel object recognition is “not retained”. Also, in the data set “Ames mutagenesis assay” (setting [4]), the Ames entry was “Neg”. In addition, the microsomal CLint is 383 µL/min/mg in the data set “Rat microsomal clearance” and 21 µL/min/mg in data set [3].
On to `Cc1cccc2c1Oc1ccc(Cl)cc1N=C2N1CCNCC1` [8-Chloro-4-methyl-11-(piperazin-1-yl)-dibenzo[b,f][1,4]oxazepine], for which the Emax at muscarinic M2 receptor and on M1 receptor was 71% in each case. Also, the EC50 on muscarinic M2 receptor is 631 nM; on M1 receptor it was 200 nM. Also, the IC50 on 5-HT2A receptor was 31.6 nM; on hERG it was 2000 nM; against CYP 3A4, 1800 nM; on CYP 2C9 it was more than 10000 nM; on CYP 1A2, 1800 nM; against CYP 2C19, more than 10000 nM. This molecule gave an IC50 against CYP 2D6 of more than 10000 nM. In [1], the “MK-801 model (ID50 mg/kg po)” value worked out at 1.9 mg/kg. Besides, the “MK-801 model (ID50 mg/kg sc)” value in data set [1] is reported as 0.5 mg/kg. The “Amphetamine model (ID50 mg/kg po)” value in data set [2] is more than 10 mg/kg. Moreover, the “Amphetamine model (ID50 mg/kg sc)” value in data set [2] is 3.4 mg/kg. Further, in the data set on novel object recognition, the “NOR Interpretation” value is listed as “procognitive”. Further, the “NOR - 60 minutes post training” value in the data set on novel object recognition is on record as “retained”. Besides, in the data set on novel object recognition, the “NOR - 120 minutes post training” value was “retained”. The Ames entry in “Ames mutagenesis assay” (to 5 μM (cytotoxicity precluded evaluation of all concentrations)) is listed as “Neg”. The microsomal CLint in the data set “Rat microsomal clearance” was 27 µL/min/mg; in [3], 16 µL/min/mg. The “D2 intrinsic activity, in words” value on D2 receptor is “antagonist”.
Regarding `Cc1cccc2c1Oc1ccc(F)cc1N=C2N1CCNCC1` [8-Fluoro-4-methyl-11-(piperazin-1-yl)-dibenzo[b,f][1,4]oxazepine], the results for the Emax at muscarinic M2 receptor and on M1 receptor were 50% and 56%, respectively. For the same molecule, the results for the EC50 at muscarinic M2 receptor and on M1 receptor were 1580 nM and 126 nM, respectively. Also, the IC50 was 126 nM at 5-HT2A receptor; 2300 nM on hERG; approximately 1500 nM at CYP 3A4; more than 25000 nM against CYP 2C9; 1000 nM against CYP 1A2; more than 25000 nM against CYP 2C19. Moreover, the IC50 against CYP 2D6 is more than 25000 nM. Further, in [1], the “MK-801 model (ID50 mg/kg po)” value worked out at 0.6 mg/kg. Moreover, the “MK-801 model (ID50 mg/kg sc)” value in [1] was found to be 1.4 mg/kg. The “Amphetamine model (ID50 mg/kg po)” value in data set [2] was found to be 2.8 mg/kg. Moreover, in data set [2], the “Amphetamine model (ID50 mg/kg sc)” value was 3.3 mg/kg. In addition, the “NOR Interpretation” value in the data set with novel object recognition is listed as “procognitive”. Moreover, in the data set with novel object recognition, the “NOR - 60 minutes post training” value is recorded as “retained”. Moreover, the “NOR - 120 minutes post training” value in the data set on novel object recognition is recorded as “retained”. The Ames entry in the data set “Ames mutagenesis assay” (setting [4]) is “Neg”. For the same molecule, the intrinsic clearance (microsomal CLint) in the data set “Rat microsomal clearance” amounted to 247 µL/min/mg; in data set [3] it was 13 µL/min/mg. Moreover, the “D2 intrinsic activity, in words” value on D2 receptor was “antagonist”.
